Measurements from patent US10988523B2, “Modified lipidated Relaxin B chain peptides and their therapeutic use” (Sanofi, priority 2018, dated 2021).
*1 amine or outer side, *2 acyl side, *3 side chain or, on linkers, in order; H or OH if unused. Where a SMILES comes first, the peptide text is derived from it. Side-chain parts run from the residue outwards. [ ]: non-standard residue; d: D form. The star is where a group is joined. PEG12 = NCCOCCOCCOCCOCCOCCOCCOCCOCCOCCOCCOCCOCCC(=O)O; γGlu = O=C(O)[C@H](CCC(=O)[*:2])N[*:1]; 1Nal = N[C@@H](Cc1cccc2ccccc12)C(=O)O; Stearoyl = CCCCCCCCCCCCCCCCCC(=O)*; Palmitoyl = CCCCCCCCCCCCCCCC(=O)*; αMeS = C[C@](N)(CO)C(=O)O; Nle = CCCC[C@H](N)C(=O)O; Aib = CC(C)(N)C(=O)O

Experiments:
RXFP1 = target: T1, RXFP1 (Homo sapiens, UniProt Q9HBX9); assay: OVCAR5 cAMP assay (HTRF), RXFP1 agonist activity; assay type: cell-based; settings: for Emax: OVCAR-5, maximal cAMP relative to H2-relaxin maximum (100%), read-out: EMax, OVCAR 5 cells (cAMP); for EC50: OVCAR5 cells, cAMP HTRF, read-out: EC50 (nM), OVCAR 5 cells (cAMP)
T1 construct: OVCAR5 cells expressing endogenous RXFP1; endogenous in cells; host or cells: OVCAR5 cells
T1 sequence (Q9HBX9 1-757): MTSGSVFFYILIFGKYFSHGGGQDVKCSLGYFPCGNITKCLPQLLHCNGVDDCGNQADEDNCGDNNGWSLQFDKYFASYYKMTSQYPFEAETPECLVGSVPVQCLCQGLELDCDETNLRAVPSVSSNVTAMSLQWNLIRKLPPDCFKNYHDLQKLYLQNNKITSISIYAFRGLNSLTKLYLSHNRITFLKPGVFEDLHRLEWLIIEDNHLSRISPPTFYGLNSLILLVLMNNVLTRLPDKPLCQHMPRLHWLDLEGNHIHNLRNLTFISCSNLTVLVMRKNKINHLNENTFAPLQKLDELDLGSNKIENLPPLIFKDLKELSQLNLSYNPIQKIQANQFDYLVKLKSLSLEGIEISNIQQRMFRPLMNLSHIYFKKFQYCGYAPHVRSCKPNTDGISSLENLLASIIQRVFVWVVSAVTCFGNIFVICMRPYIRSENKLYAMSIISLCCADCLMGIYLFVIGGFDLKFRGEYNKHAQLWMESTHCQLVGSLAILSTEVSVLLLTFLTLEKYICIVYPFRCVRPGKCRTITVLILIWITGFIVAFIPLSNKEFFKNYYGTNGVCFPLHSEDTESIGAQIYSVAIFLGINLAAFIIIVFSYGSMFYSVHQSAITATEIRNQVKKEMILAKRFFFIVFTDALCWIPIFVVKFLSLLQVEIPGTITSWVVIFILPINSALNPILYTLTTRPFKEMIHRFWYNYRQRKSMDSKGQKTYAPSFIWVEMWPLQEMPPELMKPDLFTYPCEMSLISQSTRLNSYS
Summary of the method: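 OVCAR5 cells (endogenous RXFP1) pretreated 40 min at 37° C with 1 mM IBMX, then exposed to peptides in serum-free medium for 30 min at 37° C. Lysate cAMP read by HTRF; EC50 from variable-slope sigmoidal fit; Emax as % of H2-relaxin maximal cAMP in same run.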

[1] = Pharmacokinetic (PK) determination after i.v. or s.c. administration to rats; assay type: in vivo, Sprague Dawley rats; settings: Rat PK; for C0 / half-life / Cmax / Tmax / bioavailability: Sprague Dawley; for C0 / half-life: iv; for C0: extrapolated plasma concentration at t=0, read-out: C0; for half-life / Cmax / Tmax / bioavailability: plasma; for half-life: read-out: T½ (converted); for Cmax / Tmax: sc, 3 mg/kg s.c.; for bioavailability: subcutaneous, 3 mg/kg s.c. vs 1 mg/kg i.v., dose-corrected AUC ratio
Procedure: Prior to the testing of a peptide batch, its purity (HPLC-UV) was determined. Dose was corrected for presence of salts, solvent and purity.
Sprague Dawley rats were dosed with study peptide at a dose of 1 mg/kg intravenously (i.v.) or 3 mg/kg subcutaneously (s.c.) as a solution in PBS (0.2 mg/ml and 0.6 mg/ml respectively).
Plasma samples were analyzed after protein precipitation via liquid chromatography mass spectrometry (LC/MS).
PK parameters and half-life were calculated using Phoenix 64 (WinNonlin 6.4)-Pharsight (Certara™) (non-compartment model). Values below the limit of quantification (BLQ) were replaced by zero for subsequent calculations and PK analysis.
T½: in-vivo half life, time required for test compound plasma concentration to be divided by two during the PK experiment.
C0: Extrapolated test compound plasma concentration at t=0 time point (i.v. route).
Cmax: maximal test compound plasma concentration at the indicated time point (s.c. route).
Tmax: Time point where Cmax is attained.
F %: s.c. vs i.v. bioavailability, dose-corrected area under curve (AUC) s.c. route divided by AUC i.v.

Emax (RXFP1) [%] | C0 ([1]; 1 mg/kg i.v.) [nM] | half-life ([1]; 1 mg/kg i.v.) [h] | Cmax [1] [nM] | Tmax [1] [h] | bioavailability [1] [%] | EC50 (RXFP1) [nM] | T½ ([1]; 1 mg/kg i.v.) [h] | SMILES
74 | 3700 | 6.4 | 1800 | 5 | 81 | – | – | CCCCCCCCCCCCCCCC(=O)N[C@@H](CCC(=O)N[C@@H](CCC(=O)N[C@@H](CCC(=O)NCCCC[C@H](NC(=O)CCOCCOCCOCCOCCOCCOCCOCCOCCOCCOCCOCCOCCNC(=O)[C@H](CCCCN)NC(=O)[C@H](CCCNC(=N)N)NC(=O)C(C)(C)NC(=O)[C@H](CO)NC(=O)[C@H](Cc1c[nH]c2ccccc12)NC(=O)[C@@H](NC(=O)[C@H](CO)NC(=O)[C@H](CCCC)NC(=O)CNC(=O)[C@H](CCC(=O)O)NC(=O)C(C)(C)NC(=O)C(C)(C)NC(=O)[C@@H](NC(=O)[C@H](CCC(N)=O)NC(=O)[C@H](C)NC(=O)[C@H](CCCNC(=N)N)NC(=O)[C@@H](NC(=O)[C@H](CCCCN)NC(=O)[C@H](CCC(=O)O)NC(=O)[C@H](CCCNC(=N)N)NC(=O)CNC(=O)[C@H](CCC(=O)O)NC(=O)[C@H](CC(C)C)NC(C)=O)C(C)C)[C@@H](C)CC)[C@@H](C)O)C(N)=O)C(=O)O)C(=O)O)C(=O)O [compound 24] (Ac-LEGREKVRAQI[Aib][Aib]EG[Nle]STWS[Aib]RK[PEG12]K([γGlu-γGlu-γGlu-Palmitoyl])-NH2)
85 | 2330 | 5.8 | 770 | 8 | 72 | 0.57 | – | CCCCCCCCCCCCCCCC(=O)N[C@@H](CCC(=O)N[C@@H](CCC(=O)N[C@@H](CCC(=O)NCCCC[C@H](NC(=O)CCOCCOCCOCCOCCOCCOCCOCCOCCOCCOCCOCCOCCNC(=O)[C@H](CCCCNC(C)=O)NC(=O)[C@H](CCCCN)NC(=O)[C@H](CCCNC(=N)N)NC(=O)C(C)(C)NC(=O)[C@H](CO)NC(=O)[C@H](Cc1c[nH]c2ccccc12)NC(=O)[C@@H](NC(=O)[C@H](CO)NC(=O)[C@H](CCCC)NC(=O)CNC(=O)[C@H](CCC(=O)O)NC(=O)C(C)(C)NC(=O)C(C)(C)NC(=O)[C@@H](NC(=O)[C@H](CCCCNC(C)=O)NC(=O)[C@H](C)NC(=O)[C@H](CCCNC(=N)N)NC(=O)[C@@H](NC(=O)[C@H](CCCCN)NC(=O)[C@H](CCC(=O)O)NC(=O)[C@H](CCCNC(=N)N)NC(=O)CNC(=O)[C@H](CCC(=O)O)NC(=O)[C@H](CC(C)C)NC(C)=O)C(C)C)[C@@H](C)CC)[C@@H](C)O)C(N)=O)C(=O)O)C(=O)O)C(=O)O [compound 26] (Ac-LEGREKVRAK(Ac)I[Aib][Aib]EG[Nle]STWS[Aib]RKK(Ac)[PEG12]K([γGlu-γGlu-γGlu-Palmitoyl])-NH2)
86 | 3200 | – | 1500 | 8 | 62 | 0.3 | 6.90 | CCCCCCCCCCCCCCCC(=O)N[C@@H](CCC(=O)N[C@@H](CCC(=O)N[C@@H](CCC(=O)NCCCC[C@H](NC(=O)CCOCCOCCOCCOCCOCCOCCOCCOCCOCCOCCOCCOCCNC(=O)[C@H](CCCCNC(C)=O)NC(=O)[C@H](CCCCN)NC(=O)[C@H](CCCNC(=N)N)NC(=O)C(C)(C)NC(=O)[C@H](CO)NC(=O)[C@H](Cc1c[nH]c2ccccc12)NC(=O)[C@@H](NC(=O)[C@H](CO)NC(=O)[C@H](CCCC)NC(=O)CNC(=O)[C@H](CCC(=O)O)NC(=O)C(C)(C)NC(=O)C(C)(C)NC(=O)[C@@H](NC(=O)[C@H](CCCCNC(C)=O)NC(=O)C(C)(C)NC(=O)[C@H](CCCNC(=N)N)NC(=O)[C@@H](NC(=O)[C@H](CCCCN)NC(=O)[C@H](CCC(=O)O)NC(=O)[C@H](CCCNC(=N)N)NC(=O)CNC(=O)[C@H](CCC(=O)O)NC(=O)[C@H](CC(C)C)NC(C)=O)C(C)C)[C@@H](C)CC)[C@@H](C)O)C(N)=O)C(=O)O)C(=O)O)C(=O)O [compound 27] (Ac-LEGREKVR[Aib]K(Ac)I[Aib][Aib]EG[Nle]STWS[Aib]RKK(Ac)[PEG12]K([γGlu-γGlu-γGlu-Palmitoyl])-NH2)
83 | 5560 | 2.55 | 1710 | 6 | 40 | – | – | CCCCCCCCCCCCCCCCCC(=O)N[C@@H](CCC(=O)N[C@@H](CCC(=O)N[C@@H](CCC(=O)NCCCC[C@H](NC(=O)CCOCCOCCOCCOCCOCCOCCOCCOCCOCCOCCOCCOCCNC(=O)[C@H](CCCCNC(C)=O)NC(=O)[C@H](CCCCN)NC(=O)[C@H](CCCNC(=N)N)NC(=O)C(C)(C)NC(=O)[C@H](CO)NC(=O)[C@H](Cc1cccc2ccccc12)NC(=O)[C@@H](NC(=O)[C@H](CO)NC(=O)[C@H](CCCC)NC(=O)CNC(=O)[C@H](CCC(=O)O)NC(=O)C(C)(C)NC(=O)C(C)(C)NC(=O)[C@@H](NC(=O)[C@H](CCCCNC(C)=O)NC(=O)C(C)(C)NC(=O)[C@H](CCCNC(=N)N)NC(=O)[C@@H](NC(=O)[C@H](CCCCN)NC(=O)[C@H](CCC(=O)O)NC(=O)[C@H](CCCNC(=N)N)NC(=O)CNC(=O)[C@H](CCC(=O)O)NC(=O)[C@H](CC(C)C)NC(C)=O)C(C)C)[C@@H](C)CC)[C@@H](C)O)C(N)=O)C(=O)O)C(=O)O)C(=O)O [compound 37] (Ac-LEGREKVR[Aib]K(Ac)I[Aib][Aib]EG[Nle]ST[1Nal]S[Aib]RKK(Ac)[PEG12]K([γGlu-γGlu-γGlu-Stearoyl])-NH2)
89 | 4370 | 7.16 | 2500 | 8 | 79 | 0.21 | – | CCCCCCCCCCCCCCCC(=O)N[C@@H](CCC(=O)N[C@@H](CCC(=O)N[C@@H](CCC(=O)NCCCC[C@H](NC(=O)CCOCCOCCOCCOCCOCCOCCOCCOCCOCCOCCOCCOCCNC(=O)[C@H](CCCCN)NC(=O)[C@H](CCCNC(=N)N)NC(=O)C(C)(C)NC(=O)[C@H](CO)NC(=O)[C@H](Cc1c[nH]c2ccccc12)NC(=O)[C@@H](NC(=O)[C@H](CO)NC(=O)[C@H](CCCC)NC(=O)CNC(=O)[C@H](CCC(=O)O)NC(=O)C(C)(C)NC(=O)C(C)(C)NC(=O)[C@@H](NC(=O)[C@H](CCCCNC(C)=O)NC(=O)[C@H](C)NC(=O)[C@H](CCCNC(=N)N)NC(=O)[C@@H](NC(=O)[C@H](CCCCN)NC(=O)[C@H](CCC(=O)O)NC(=O)[C@H](CCCNC(=N)N)NC(=O)CNC(=O)[C@H](CCC(=O)O)NC(=O)[C@H](CC(C)C)NC(C)=O)C(C)C)[C@@H](C)CC)[C@@H](C)O)C(N)=O)C(=O)O)C(=O)O)C(=O)O [compound 38] (Ac-LEGREKVRAK(Ac)I[Aib][Aib]EG[Nle]STWS[Aib]RK[PEG12]K([γGlu-γGlu-γGlu-Palmitoyl])-NH2)
91 | 4100 | 3.7 | 1570 | 8 | 62 | 0.03 | – | CCCCCCCCCCCCCCCCCC(=O)N[C@@H](CCC(=O)N[C@@H](CCC(=O)N[C@@H](CCC(=O)N[C@@H](CCC(=O)NCCCC[C@H](NC(=O)CCOCCOCCOCCOCCOCCOCCOCCOCCOCCOCCOCCOCCNC(=O)[C@H](CCCCNC(C)=O)NC(=O)[C@H](CCCCN)NC(=O)[C@H](CCCNC(=N)N)NC(=O)[C@H](CCCCN)NC(=O)[C@](C)(CO)NC(=O)[C@H](Cc1c[nH]c2ccccc12)NC(=O)[C@@H](NC(=O)[C@H](CO)NC(=O)[C@H](CCCC)NC(=O)CNC(=O)[C@H](CCC(=O)O)NC(=O)C(C)(C)NC(=O)C(C)(C)NC(=O)[C@@H](NC(=O)[C@H](CCCCNC(C)=O)NC(=O)[C@H](C)NC(=O)[C@H](CCCNC(=N)N)NC(=O)[C@@H](NC(=O)[C@H](CCCCN)NC(=O)[C@H](CCC(=O)O)NC(=O)[C@H](CCCNC(=N)N)NC(=O)CNC(=O)[C@H](CCC(=O)O)NC(=O)[C@H](CC(C)C)NC(C)=O)C(C)C)[C@@H](C)CC)[C@@H](C)O)C(N)=O)C(=O)O)C(=O)O)C(=O)O)C(=O)O [compound 39] (Ac-LEGREKVRAK(Ac)I[Aib][Aib]EG[Nle]STW[αMeS]KRKK(Ac)[PEG12]K([γGlu-γGlu-γGlu-γGlu-Stearoyl])-NH2)
